This assay has as its target TET2 (Homo sapiens, UniProt Q6N021, DEL1481-1843).

Molecules are shown by their SMILES.

In the case of `O=C(O)CCC(=O)C(=O)O` [compound 1, 2KG], the Km (commonly the substrate concentration at which the rate is half of its maximum) was 15.7 µM.
